In patent US12662451B2, “Chemical compounds and uses thereof” (GLAXOSMITHKLINE INTELLECTUAL PROPERTY (NO.4) LIMITED, priority 2023, dated 2026):

Legend:
[1] = target: T1, recombinant full-length WRN protein (1-1432) (Homo sapiens, UniProt Q14191); assay: WRN unwinding activity, fluorogenic 384-well assay (Example A); format: biochemical; settings: WRN unwinding activity, 4 hr; Table 2; read-out: 4 hr UNW pIC50 (converted)
T1 construct: recombinant full-length WRN protein (1-1432)
Method: Functional WRN unwinding activity can be measured using a fluorogenic plate based 384 well assay configured to measure the separation of labeled double stranded DNA substrate. Compounds were dosed out in neat DMSO with a 1:3 serial dilution scheme. 100 nL of compound was stamped into Greiner low volume black assay plates (Greiner Cat #784076) using the Echo Acoustic Dispenser to generate assay ready plates. All solutions were prepared in assay buffer (25 mM TRIS (pH8.0), 5 mM NaCl, 2 mM MgCl2, 1 mM DTT, 0.05% BSA) for this 10 μL low volume reaction. To prepare the solutions, a 2×WRN Enzyme cocktail was made containing 200 pM of recombinant full-length WRN protein (1-1432). A 2× Substrate cocktail was made to consist of both 200 μM ATP (any ultrapure ATP sample) and 12 nM of the fluorescent quenched labeled double stranded DNA oligomer (IDT Custom synthesis; 5′-5IABkFQ (SEQ ID NO. 1)/GCACTGGCCGTCGTTTTACGGTCGTGACT-3′ (SEQ ID NO. 2): 5′-TTTTTTACTTAACGACGGCCAGTGC (SEQ ID NO. 3)/36-TAMTSP/-3′ (SEQ ID NO. 4)). To start the reaction, 5 μL of assay buffer was added to a single column to serve as the low control. Following this, 5 μL of 2×WRN Enzyme was added in all wells except the buffer low control wells. The reaction plate was covered and incubated at ambient temperature for 4 hours to allow for time dependent inhibition if it existed. After 4 hours, the addition of 5 μL of 2×-ATP/DNA substrate cocktail was added across all wells of the assay plate. This initiated the reaction, as the plate was incubated at ambient temperature for 60 minutes for the unwinding reaction to occur. A 10 mM EDTA solution was prepared and added at 5 μL across the entire plate after 60 minutes to quench the samples for an endpoint measurement. Fluorescent intensity was measured using excitation and emission wavelengths of 525 nm and 598 nm, respectively. High florescent intensity (DMSO with buffer) represents full inhibition of unwinding activity and low florescent intensity (DMSO with enzyme) represents no inhibition of unwinding activity. The potency of the compounds was determined using a four-parameter inhibition model to generate pIC50, Hill Slope, maximum inhibition (see Table 2).

[2] = test system: SW48 human colorectal cancer cells (MSI-H cancer cells); assay: SW48 cell viability, CellTiter-Glo, 120 hours (Example B); settings: Homo sapiens, SW48, 120 h, read-out: SW48 pCC50, SW48 cell viability, 120 hours incubation (converted); Table 2

T1 sequence (Q14191 whole entry): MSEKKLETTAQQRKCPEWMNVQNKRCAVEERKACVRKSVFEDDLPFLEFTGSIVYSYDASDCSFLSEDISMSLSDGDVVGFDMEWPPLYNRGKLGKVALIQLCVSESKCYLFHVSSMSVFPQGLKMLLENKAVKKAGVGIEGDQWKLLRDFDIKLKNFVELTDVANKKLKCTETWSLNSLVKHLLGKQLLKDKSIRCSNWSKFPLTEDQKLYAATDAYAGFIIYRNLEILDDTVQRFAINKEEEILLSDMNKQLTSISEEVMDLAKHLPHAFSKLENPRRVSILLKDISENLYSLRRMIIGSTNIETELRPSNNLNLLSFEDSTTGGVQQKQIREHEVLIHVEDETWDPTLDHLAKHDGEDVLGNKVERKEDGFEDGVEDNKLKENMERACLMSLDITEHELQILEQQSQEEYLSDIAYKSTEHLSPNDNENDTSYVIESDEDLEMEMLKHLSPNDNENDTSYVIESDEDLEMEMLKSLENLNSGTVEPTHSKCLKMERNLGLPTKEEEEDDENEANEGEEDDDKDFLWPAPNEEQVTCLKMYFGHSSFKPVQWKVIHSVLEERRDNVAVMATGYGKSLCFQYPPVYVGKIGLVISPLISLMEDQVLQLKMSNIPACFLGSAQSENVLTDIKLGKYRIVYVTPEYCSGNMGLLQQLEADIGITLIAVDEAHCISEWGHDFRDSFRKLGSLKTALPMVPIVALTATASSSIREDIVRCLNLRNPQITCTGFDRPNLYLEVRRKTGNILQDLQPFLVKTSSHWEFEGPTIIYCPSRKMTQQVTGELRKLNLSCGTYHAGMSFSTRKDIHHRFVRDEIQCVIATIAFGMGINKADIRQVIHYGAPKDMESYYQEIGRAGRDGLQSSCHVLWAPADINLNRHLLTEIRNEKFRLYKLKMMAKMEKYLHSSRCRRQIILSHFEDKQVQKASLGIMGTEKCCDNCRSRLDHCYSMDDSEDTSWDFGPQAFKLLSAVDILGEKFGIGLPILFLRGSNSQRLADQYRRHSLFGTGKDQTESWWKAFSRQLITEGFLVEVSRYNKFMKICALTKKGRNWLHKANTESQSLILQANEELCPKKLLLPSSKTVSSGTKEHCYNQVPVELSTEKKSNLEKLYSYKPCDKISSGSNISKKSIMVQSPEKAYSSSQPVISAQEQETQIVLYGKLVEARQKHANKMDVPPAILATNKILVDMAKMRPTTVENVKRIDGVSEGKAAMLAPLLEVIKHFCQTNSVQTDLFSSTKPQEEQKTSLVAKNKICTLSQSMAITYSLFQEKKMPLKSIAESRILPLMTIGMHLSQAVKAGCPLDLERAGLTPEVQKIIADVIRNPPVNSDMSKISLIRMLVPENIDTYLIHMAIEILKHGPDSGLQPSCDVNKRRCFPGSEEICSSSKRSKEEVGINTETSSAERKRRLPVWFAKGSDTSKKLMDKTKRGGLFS

`O=C(O)[C@@H]1[C@@H](c2ccc(C(F)(F)F)cc2CO)CCC[C@H]1C(=O)Nc1ccc(C(F)(F)F)cc1F` (racemic) [Example 246, rac-(1R,2R,6S)-2-((2-fluoro-4-(trifluoromethyl)phenyl)carbamoyl)-6-(2-(hydroxymethyl)-4-(trifluoromethyl)phenyl)cyclohexane-1-carboxylic acid] was tested, and the IC50 [1] was 0.126 µM.
In the case of `Cc1nc2cc(S(=O)(=O)N(C)c3ccc([C@H]4CCC[C@@H](COc5ccc(C(F)(F)F)cc5)[C@@H]4C(=O)O)cc3)ccc2n1C` [Example 205, (1R,2R,6S)-2-((4-(trifluoromethyl)phenoxy)methyl)-6-(4-((N,1,2-trimethyl-1H-benzo[d]imidazole)-5-sulfonamido)phenyl)cyclohexane-1-carboxylic acid], the IC50 [1] is reported as 0.0251 µM.
`Cc1nc2cc(S(=O)(=O)N(C)c3ccc([C@H]4CCC[C@@H](C(=O)Nc5ccc(C(F)(F)F)cc5F)[C@@H]4C(=O)O)cc3)ccc2[nH]1` (single isomer, unassigned) [Example 91] gave an IC50 [1] of 0.126 µM.
Molecule `Cc1nc2cc(S(=O)(=O)N(C)c3ccc([C@H]4C[C@@H](O)C[C@@H](C(=O)Nc5ccc(C(F)(F)F)cc5F)[C@@H]4C(=O)O)cc3)ccc2n1C` (single isomer, unassigned) [Example 144] has an IC50 [1] of 0.0501 µM.
`COC(=O)c1sccc1-c1ccc([C@H]2CCC[C@@H](C(=O)Nc3ccc(C(F)(F)F)cc3F)[C@@H]2C(=O)O)cc1` [Example 33, (1R,2R,6S)-2-((2-fluoro-4-(trifluoromethyl)phenyl)carbamoyl)-6-(4-(2-(methoxycarbonyl)thiophen-3-yl)phenyl)cyclohexane-1-carboxylic acid] gave an IC50 [1] of 0.126 µM.
With `Cc1nsc(-c2ccc([C@H]3CCC[C@@H](C(=O)Nc4ccc(C(F)(F)F)cc4F)[C@@H]3C(=O)O)cc2)c1O` [Example 28, (1R,2R,6S)-2-((2-fluoro-4-(trifluoromethyl)phenyl)carbamoyl)-6-(4-(4-hydroxy-3-methylisothiazol-5-yl)phenyl)cyclohexane-1-carboxylic acid] the IC50 [1] was 0.0316 µM.
In the case of `Cc1nc2cc(S(=O)(=O)N(C)c3ccc([C@@H]4C[C@@H](N5CCOCC5)C[C@H](C(=O)Nc5ccc(C(F)(F)F)cc5F)[C@H]4C(=O)O)cc3)ccc2n1C` (relative stereo) [Example 339, rel-(1R,2R,4S,6S)-2-((2-fluoro-4-(trifluoromethyl)phenyl)carbamoyl)-4-morpholino-6-(4-((N,1,2-trimethyl-1H-benzo[d]imidazole)-5-sulfonamido)phenyl)cyclohexane-1-carboxylic acid], the IC50 [1] is reported as 0.631 µM.
Molecule `Cc1nc2cc(S(=O)(=O)N(C)c3ccc([C@H]4CCC[C@@H](CN5CC6(C5)CC(F)(F)C6)[C@@H]4C(=O)O)cc3)ccc2n1C` (racemic) [Example 201, rac-(1R,2R,6S)-2-((6,6-difluoro-2-azaspiro[3.3]heptan-2-yl)methyl)-6-(4-((N,1,2-trimethyl-1H-benzo[d]imidazole)-5-sulfonamido)phenyl)cyclohexane-1-carboxylic acid] has an IC50 [1] of 25.1 µM.
Work on `O=C(O)[C@@H]1[C@@H](c2ccc([C@H]3CCCOCC3)cc2)CCC[C@H]1C(=O)Nc1ccc(C(F)(F)F)cc1F` (racemic) [Example 59, 1:1 Mixture of (1R,2R,6S)-2-((2-fluoro-4-(trifluoromethyl)phenyl)carbamoyl)-6-(4-((S)-oxepan-4-yl)phenyl)cyclohexane-1-carboxylic acid AND (1R,2R,6S)-2-((2-fluoro-4-(trifluoromethyl)phenyl)carbamoyl)-6-(4-((R)-oxepan-4-yl)phenyl)cyclohexane-1-carboxylic acid] yielded an IC50 [1] of 0.794 µM.
For `Cc1nc2cc(S(=O)(=O)N(C)c3ccc([C@H]4CN(CC(F)(F)F)C[C@@H](C(=O)Nc5ccc(C(F)(F)F)cc5F)[C@@H]4C(=O)O)cc3)ccc2n1C` (relative stereo) [Example 358, rel-(3R,4S,5R)-3-((2-fluoro-4-(trifluoromethyl)phenyl)carbamoyl)-1-(2,2,2-trifluoroethyl)-5-(4-((N,1,2-trimethyl-1H-benzo[d]imidazole)-5-sulfonamido)phenyl)piperidine-4-carboxylic acid], the CC50 [2] was 0.631 µM.
`CN(c1ccc([C@H]2CCC[C@@H](C(=O)Nc3ccc(C(F)(F)F)cc3F)[C@@H]2C(=O)O)cc1)S(=O)(=O)c1ccc2[nH]cnc2c1` (single isomer, unassigned) [Example 85] gave an IC50 [1] of 0.251 µM.
With `C#CC(=O)N(C)c1ccc([C@H]2CCC[C@@H](C(=O)Nc3ccc(C(F)(F)F)cc3F)[C@@H]2C(=O)O)cc1` [Example 229, (1R,2R,6S)-2-((2-fluoro-4-(trifluoromethyl)phenyl)carbamoyl)-6-(4-(N-methylpropiolamido)phenyl)cyclohexane-1-carboxylic acid] the IC50 [1] was 0.316 µM.
For `Cc1nc2cc(S(=O)(=O)N(C)c3ccc([C@H]4CCC[C@@H](C(=O)NC56CC(C7CCC7)(C5)C6)[C@@H]4C(=O)O)cc3)ccc2n1C` [Example 198, (1R,2R,6S)-2-((3-cyclobutylbicyclo[1.1.1]pentan-1-yl)carbamoyl)-6-(4-((N,1,2-trimethyl-1H-benzo[d]imidazole)-5-sulfonamido)phenyl)cyclohexane-1-carboxylic acid], the IC50 [1] was 0.00501 µM.
`CC(=O)N1CCc2cc(S(=O)(=O)N(C)c3ccc([C@H]4CCC[C@@H](C(=O)Nc5ccc(C(F)(F)F)cc5F)[C@@H]4C(=O)O)cc3)ccc21` (single isomer, unassigned) [Example 89] showed an IC50 [1] of 0.2 µM.
With `Cc1nc2cc(S(=O)(=O)N(C)c3ccc([C@H]4CCC[C@@H](CNc5ccc(C(C)C)cc5)[C@@H]4C(=O)O)cc3)ccc2n1C` (racemic) [Example 200, rac-(1R,2R,6S)-2-(((4-isopropylphenyl)amino)methyl)-6-(4-((N,1,2-trimethyl-1H-benzo[d]imidazole)-5-sulfonamido)phenyl)cyclohexane-1-carboxylic acid] the IC50 [1] was 0.0126 µM.
With `O=C(O)[C@@H]1[C@@H](c2ccc(-c3cccc(O)n3)cc2)CCC[C@H]1C(=O)Nc1ccc(C(F)(F)F)cc1F` [Example 14, (1R,2R,6S)-2-((2-fluoro-4-(trifluoromethyl)phenyl)carbamoyl)-6-(4-(6-hydroxypyridin-2-yl)phenyl)cyclohexane-1-carboxylic acid] the IC50 [1] was 0.00794 µM.
In the case of `Cc1nc2cc(S(=O)(=O)N(C)c3ccc([C@H]4CCC[C@@H](C(=O)Nc5ccc(C(F)(F)F)cn5)[C@@H]4C(=O)O)cc3)ccc2n1C` (single isomer, unassigned) [Example 169], the IC50 [1] is reported as 7.94 µM.
`O=C(O)[C@@H]1[C@@H](c2ccc(N3CCC4(CC3)CO4)cc2)CCC[C@H]1C(=O)Nc1ccc(C(F)(F)F)cc1F` (racemic) [Example 228, rac-(1R,2S,6R)-2-(4-(1-oxa-6-azaspiro[2.5]octan-6-yl)phenyl)-6-((2-fluoro-4-(trifluoromethyl)phenyl)carbamoyl)cyclohexane-1-carboxylic acid] gave an IC50 [1] of 6.31 µM.
`N#Cc1cnnc(-c2ccc(C3CCCC(C(=O)Nc4ccc(C(F)(F)F)cc4F)[C@@H]3C(=O)O)cc2)c1` (stereo in doubt) [Example 39, (1R,2R,6S)-2-(4-(5-cyanopyridazin-3-yl)phenyl)-6-((2-fluoro-4-(trifluoromethyl)phenyl)carbamoyl)cyclohe xane-1-carboxylic acid] was tested, and the IC50 [1] was 2 µM.
`Cc1nc2cc(S(=O)(=O)N(C)c3ccc([C@@H]4C[C@@H]5COC[C@@H]5[C@H](C(=O)Nc5ccc(C(F)(F)F)cc5F)[C@H]4C(=O)O)cc3)ccc2n1C` (stereo in doubt) [Example 391, rel-(3aR,4R,5R,6S,7aR)-4-((2-fluoro-4-(trifluoromethyl)phenyl)carbamoyl)-6-(4-((N,1,2-trimethyl-1H-benzo[d]imidazole)-5-sulfonamido)phenyl)octahydroisobenzofuran-5-carboxylic acid] was tested, and the CC50 [2] was 20 µM.
Molecule `Cc1nc2cc(S(=O)(=O)N(C)c3ccc([C@H]4C[C@H](N5CCC[C@H](F)C5)C[C@@H](C(=O)Nc5ccc(C(F)(F)F)cc5F)[C@@H]4C(=O)O)cc3)ccc2n1C` (stereo in doubt) [Example 351, rel-(1R*,2R*,4S*,6S*)-2-((2-fluoro-4-(trifluoromethyl)phenyl)carbamoyl)-4-((S)-3-fluoropiperidin-1-yl)-6-(4-((N,1,2-trimethyl-1H-benzo[d]imidazole)-5-sulfonamido)phenyl)cyclohexane-1-carboxylic acid] has a CC50 [2] of 10 µM.
